Patent US9540392B2, “Thienopyrimidines” (BAYER PHARMA AKTIENGESELLSCHAFT, priority 2012, dated 2017)

Target: T1, human full-length MKNK1 (Homo sapiens, UniProt Q9BUB5, T385D)
T1 construct: GST (N); purchased Carna Biosciences 02-145; host or cells: insect cells (baculovirus expression system)
Assay: MKNK1 kinase high ATP assay (TR-FRET)
Format: biochemical
Details: 2 mM ATP, after preincubation with MKNK1; read-out: MKNK1 IC50 (MKNK1 high ATP)
How it was run: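 Compound was preincubated 15 min at 22° C. with MKNK1 in 50 mM HEPES pH 7.5, 5 mM MgCl2, 1.0 mM DTT, then the reaction ran 30 min at 22° C. with 2 mM ATP and 0.06 μM biotinylated peptide (final).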

T1 sequence (Q9BUB5 1-424 isoform Q9BUB5-2 T344D): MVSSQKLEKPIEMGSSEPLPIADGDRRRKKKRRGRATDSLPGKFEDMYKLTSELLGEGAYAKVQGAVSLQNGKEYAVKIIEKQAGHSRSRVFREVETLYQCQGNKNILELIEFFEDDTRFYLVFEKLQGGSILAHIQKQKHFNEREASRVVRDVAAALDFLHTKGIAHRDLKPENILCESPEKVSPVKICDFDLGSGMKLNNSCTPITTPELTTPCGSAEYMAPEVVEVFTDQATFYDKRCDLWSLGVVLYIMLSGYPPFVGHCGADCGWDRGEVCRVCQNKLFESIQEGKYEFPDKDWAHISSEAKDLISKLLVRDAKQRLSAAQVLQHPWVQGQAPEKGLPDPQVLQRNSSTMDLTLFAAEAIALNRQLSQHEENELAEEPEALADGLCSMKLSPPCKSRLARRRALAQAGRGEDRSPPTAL

COc1cc2[nH]ncc2cc1Nc1ncnc2sc3c(c12)CCC(C(=O)N(C)C(C)C)C3 (racemic) [Example 173, (RS)—N—Isopropyl-4-[(6-methoxy-1H-indazol-5-yl)amino]-N-methyl-5,6,7,8-tetrahydro[1]benzothieno[2,3-d]pyrimidine-7-carboxamide]
IC50: 0.5 nM

CCOc1cc2[nH]ncc2cc1Nc1ncnc2sc3c(c12)CCC(C(=O)N1CCCC(C#N)C1)C3 (racemic) [Example 241, (RS)-1-({4-[(6-Ethoxy-1H-indazol-5-yl)amino]-5,6,7,8-tetrahydro[1]benzothieno[2,3-d]pyrimidin-7-yl}carbonyl)piperidine-3-carbonitrile]
IC50: 0.4 nM

C#CCN(C)C(=O)C1CCc2c(sc3ncnc(Nc4ccc5[nH]ncc5c4)c23)C1 (centres unmarked) [Example 35, 4-(1H-Indazol-5-ylamino)-N-methyl-N-(prop-2-yn-1-yl)-5,6,7,8-tetrahydro[1] benzothieno [2,3-d]pyrimidine-7-carboxamide]
IC50: 5 nM

CC(C)Oc1cc2[nH]ncc2cc1Nc1ncnc2sc3c(c12)CCC(C(=O)N1[C@H](C)CC[C@H]1C)C3 (mixture of isomers) [Example 227, [(2R,5R)-2,5-Dimethylpyrrolidin-1-yl]{(7RS)-4-[(6-isopropoxy-1H-indazol-5-yl)amino]-5,6,7,8-tetrahydro[1]benzothieno[2,3-d]pyrimidin-7-yl}methanone]
IC50: 0.6 nM

CC(=O)N(C)C1CCN(C(=O)C2CCc3c(sc4ncnc(Nc5ccc6[nH]ncc6c5)c34)C2)C1 (racemic) [Example 198, (RS)-N-(1-{[4-(1H-indazol-5-ylamino)-5,6,7,8-tetrahydro[1]benzothieno[2,3-d]pyrimidin-7-yl]carbonyl}pyrrolidin-3-yl)-N-methylacetamide]
IC50: 10 nM

CCOc1cc2[nH]ncc2cc1Nc1ncnc2sc3c(c12)CCC(C(=O)N(CCOC)CCOC)C3 (racemic) [Example 252, (RS)-4-[(6-Ethoxy-1H-indazol-5-yl)amino]-N,N-bis(2-methoxyethyl)-5,6,7,8-tetrahydro[1]benzothieno[2,3-d]pyrimidine-7-carboxamide]
IC50: 2.2 nM

CCN(C(=O)C1CCc2c(sc3ncnc(Nc4cc5cn[nH]c5cc4OC)c23)C1)C(C)C (centres unmarked) [Example 67, N-Ethyl-4-[(6-Methoxy-1H-indazol-5-yl)amino]-N-(propan-2-yl)-5,6,7,8-tetrahydro[1]benzothieno[2,3-d]pyrimidine-7-carboxamide]
IC50: 0.7 nM

O=C(C1CCc2c(sc3ncnc(Nc4ccc5[nH]ncc5c4)c23)C1)N1CCCC1 (centres unmarked) [Example 51, [4-(1H-Indazol-5-ylamino)-5,6,7,8-tetrahydro[1]benzothieno [2,3-d]pyrimidin-7-yl](pyrrolidin-1-yl)methanone]
IC50: 15 nM

CCOc1cc2[nH]ncc2cc1Nc1ncnc2sc3c(c12)CCC(C(=O)N(CC)CCO)C3 (racemic) [Example 231, (RS)-4-[(6-Ethoxy-1H-indazol-5-yl)amino]-N-ethyl-N-(2-hydroxyethyl)-5,6,7,8-tetrahydro[1]benzothieno[2,3-d]pyrimidine-7-carboxamide]
IC50: 0.3 nM

CC(C)Oc1cc2[nH]ncc2cc1Nc1ncnc2sc3c(c12)CCC(C(=O)N1CC2(CCS2(=O)=O)C1)C3 (racemic) [Example 222, (RS)-(1,1-Dioxido-1-thia-6-azaspiro[3.3]hept-6-yl)(4-{[6-(propan-2-yloxy)-1H-indazol-5-yl]amino}-5,6,7,8-tetrahydro[1]benzothieno[2,3-d]pyrimidin-7-yl)methanone]
IC50: 0.9 nM

Cn1ccc(NC(=O)C2CCc3c(sc4ncnc(Nc5ccc6[nH]ncc6c5)c34)C2)n1 (racemic) [Example 140, (RS)-4-(1H-indazol-5-ylamino)-N-(1-methyl-1H-pyrazol-3-yl)-5,6,7,8-tetrahydro[1]benzothieno[2,3-d]pyrimidine-7-carboxamide]
IC50: 12.4 nM

CC1CCN(C(=O)C2CCc3c(sc4ncnc(Nc5ccc6[nH]ncc6c5)c34)C2)CC1 (racemic) [Example 105, (RS)-[4-(1H-indazol-5-ylamino)-5,6,7,8-tetrahydro[1]benzothieno[2,3-d]pyrimidin-7-yl](4-methylpiperidin-1-yl)methanone]
IC50: 16.8 nM

CN(C)C(=O)C1CCc2c(sc3ncnc(Nc4cc5cn[nH]c5cc4OCCCN=[N+]=[N-])c23)C1 (racemic) [Example 276, (RS)-4-{[6-(3-Azidopropoxy)-1H-indazol-5-yl]amino}-N,N-dimethyl-5,6,7,8-tetrahydro[1]benzothieno[2,3-d]pyrimidine-7-carboxamide]
IC50: 3.9 nM

CN1CCN(C(=O)C2CCc3c(sc4ncnc(Nc5ccc6[nH]ncc6c5)c34)C2)CC1 (centres unmarked) [Example 8, [4-(1H-Indazol-5-ylamino)-5,6,7,8-tetrahydro[1]benzothieno[2,3-d]pyrimidin-7-yl](4-methylpiperazin-1-yl)methanone]
IC50: 11 nM

O=C(NCCCN1CCCC1=O)C1CCc2c(sc3ncnc(Nc4ccc5[nH]ncc5c4)c23)C1 (centres unmarked) [Example 49, 4-(1H-Indazol-5-ylamino)-N-[3-(2-oxopyrrolidin-1-yl)propyl]-5,6,7,8-tetrahydro[1] benzothieno [2,3-d]pyrimidine-7-carboxamide]
IC50: 13 nM

CN(CCN1CCCC1)C(=O)C1CCc2c(sc3ncnc(Nc4ccc5[nH]ncc5c4)c23)C1 (racemic) [Example 167, (RS)-4-(1H-indazol-5-ylamino)-N-methyl-N-[2-(pyrrolidin-1-yl)ethyl]-5,6,7,8-tetrahydro[1]benzothieno[2,3-d]pyrimidine-7-carboxamide]
IC50: 14.9 nM

COc1cc2[nH]ncc2cc1Nc1ncnc2sc3c(c12)CCC(C(=O)N1CCCCC1)C3 (racemic) [Example 176, (RS)-{4-[(6-Methoxy-1H-indazol-5-yl)amino]-5,6,7,8-tetrahydro[1]benzothieno[2,3-d]pyrimidin-7-yl}(piperidin-1-yl)methanone]
IC50: 0.5 nM

COCCCN1CCN(C(=O)C2CCc3c(sc4ncnc(Nc5ccc6[nH]ncc6c5)c34)C2)CC1 (racemic) [Example 153, (RS)-[4-(1H-indazol-5-ylamino)-5,6,7,8-tetrahydro[1]benzothieno[2,3-d]pyrimidin-7-yl][4-(3-methoxypropyl)piperazin-1-yl]methanone]
IC50: 32.5 nM

N#Cc1ccccc1N1CCN(C(=O)C2CCc3c(sc4ncnc(Nc5ccc6[nH]ncc6c5)c34)C2)CC1 (racemic) [Example 115, (RS)-2-(4-{[4-(1H-indazol-5-ylamino)-5,6,7,8-tetrahydro[1]benzothieno[2,3-d]pyrimidin-7-yl]carbonyl}piperazin-1-yl)benzonitrile]
IC50: 15.3 nM

Cc1cccc(N2CCN(C(=O)C3CCc4c(sc5ncnc(Nc6ccc7[nH]ncc7c6)c45)C3)CC2)c1 (racemic) [Example 111, (RS)-[4-(1H-indazol-5-ylamino)-5,6,7,8-tetrahydro[1]benzothieno[2,3-d]pyrimidin-7-yl][4-(3-methylphenyl)piperazin-1-yl]methanone]
IC50: 24.7 nM

CNC(=O)CN1CCN(C(=O)C2CCc3c(sc4ncnc(Nc5ccc6[nH]ncc6c5)c34)C2)CC1 (racemic) [Example 164, (RS)-2-(4-{[4-(1H-indazol-5-ylamino)-5,6,7,8-tetrahydro[1]benzothieno[2,3-d]pyrimidin-7-yl]carbonyl}piperazin-1-yl)-N-methylacetamide]
IC50: 22.5 nM

O=C(NCCc1ccncc1)C1CCc2c(sc3ncnc(Nc4ccc5[nH]ncc5c4)c23)C1 (centres unmarked) [Example 36, 4-(1H-Indazol-5-ylamino)-N-[2-(pyridin-4-yl)ethyl]-5,6,7,8-tetrahydro[1] benzothieno [2,3-d]pyrimidine-7-carboxamide]
IC50: 6 nM

CCOc1cc2[nH]ncc2cc1Nc1ncnc2sc3c(c12)CCC(C(=O)N1CCC1)C3 (racemic) [Example 223, (RS)-Azetidin-1-yl{4-[(6-ethoxy-1H-indazol-5-yl)amino]-5,6,7,8-tetrahydro[1]benzothieno[2,3-d]pyrimidin-7-yl}methanone]
IC50: 1.5 nM

CN(Cc1ccnn1C)C(=O)C1CCc2c(sc3ncnc(Nc4ccc5[nH]ncc5c4)c23)C1 (racemic) [Example 138, (RS)-4-(1H-indazol-5-ylamino)-N-methyl-N-[(1-methyl-1H-pyrazol-5-yl)methyl]-5,6,7,8-tetrahydro[1]benzothieno[2,3-d]pyrimidine-7-carboxamide]
IC50: 12.6 nM

O=C(CN1CCN(C(=O)C2CCc3c(sc4ncnc(Nc5ccc6[nH]ncc6c5)c34)C2)CC1)NC1CC1 (racemic) [Example 166, (RS)-N-cyclopropyl-2-(4-{[4-(1H-indazol-5-ylamino)-5,6,7,8-tetrahydro[1]benzothieno[2,3-d]pyrimidin-7-yl]carbonyl}piperazin-1-yl)acetamide]
IC50: 15.3 nM

CCOc1cc2[nH]ncc2cc1Nc1ncnc2sc3c(c12)CCC(C(=O)N(C)CC(F)F)C3 (racemic) [Example 226, (RS)—N-(2,2-Difluoroethyl)-4-[(6-ethoxy-1H-indazol-5-yl)amino]-N-methyl-5,6,7,8-tetrahydro[1]benzothieno[2,3-d]pyrimidine-7-carboxamide]
IC50: 0.7 nM

COc1cc2[nH]ncc2cc1Nc1ncnc2sc3c(c12)CCC(C(=O)N(C)CC1CC1)C3 (racemic) [Example 182, (RS)—N-(Cyclopropylmethyl)-4-[(6-methoxy-1H-indazol-5-yl)amino]-N-methyl-5,6,7,8-tetrahydro[1]benzothieno[2,3-d]pyrimidine-7-carboxamide]
IC50: 0.5 nM

COCCN1CCN(C(=O)C2CCc3c(sc4ncnc(Nc5ccc6[nH]ncc6c5)c34)C2)CC1 (racemic) [Example 133, (RS)-[4-(1H-indazol-5-ylamino)-5,6,7,8-tetrahydro[1]benzothieno[2,3-d]pyrimidin-7-yl][4-(2-methoxyethyl)piperazin-1-yl]methanone]
IC50: 21.4 nM

O=C(NCc1cccnc1)C1CCc2c(sc3ncnc(Nc4ccc5[nH]ncc5c4)c23)C1 (racemic) [Example 76, (RS)-4-(1H-Indazol-5-ylamino)-N-(pyridin-3-ylmethyl)-5,6,7,8-tetrahydro[1]benzothieno[2,3-d]pyrimidine-7-carboxamide]
IC50: 5.1 nM
